Molecules are shown by their SMILES.

The data set deals with HEK-293T. As to the kind of experiment: Incucyte cell viability with HEK293T. Further: filed as whole numbers so only -1 and 0 and 1 occur. As to conditions: human, 10 µM, compound concentration 10 uM. Type of data set: toxicity, cell-based.
[1] abbreviates: 24 h, replicate number 1, timepoint 24 hours.
[2] abbreviates: 6 h, replicate number 1, timepoint 6 hours.
Setting [3] is: 12 h, replicate number 1, timepoint 12 hours.
Setting [4] is: 18 h, replicate number 1, timepoint 18 hours.
Setting [5] is: 0 h, replicate number 2, timepoint 0 hours.
Where [6] appears, read: 6 h, replicate number 2, timepoint 6 hours.
Setting [7] is: 0 h, replicate number 1, timepoint 0 hours.
The mark [8] stands for this setting: 18 h, replicate number 2, timepoint 18 hours.
[9] abbreviates: 12 h, replicate number 2, timepoint 12 hours.

In the case of `c1cn2cc(-c3ccc4cn[nH]c4c3)nc(Nc3ccc(N4CCOCC4)cc3)c2n1` [ENTOSPLETINIB], under setting [1], the “Growth Rate” value is listed as 1.
Consider `Cc1nc(-c2cn3c(n2)-c2ccc(-c4cnn(C(C)(C)C(N)=O)c4)cc2OCC3)n(C(C)C)n1` [TASELISIB], for which the “Growth Rate” value is, setting by setting: under setting [2], 0; under setting [3], 0; under setting [4], 0; under setting [1], 0.
With `Cc1nc(Nc2n[nH]c3c2CN(C(=O)N[C@H](CN(C)C)c2ccccc2)C3(C)C)c2sccc2n1` [PF-03758309], the “Growth Rate” value was 0 under setting [2], 0 under setting [3], 0 under setting [4] and 0 under setting [1].
As to `CC(C)NCC(O)COc1ccc(CCOCC2CC2)cc1.Cl` (stereo not drawn) [BETAXOLOL HYDROCHLORIDE], the “Growth Rate” value under setting [5] was determined as 0; the “Growth Rate” value under setting [2] worked out at 0; the “Growth Rate” value under setting [6] is listed as 1; the “Growth Rate” value under setting [3] came out at 0; the “Growth Rate” value under setting [4] is 0; the “Growth Rate” value under setting [1] came to 0.
With `Cn1cc(-c2[nH]c3cc(NC(=O)[C@H](N)C4CCCCC4)cc4c3c2C=NNC4=O)cn1`, the “Growth Rate” value under setting [2] stood at 0, the “Growth Rate” value under setting [3] turned out to be 0, the “Growth Rate” value under setting [4] came to 0 and the “Growth Rate” value under setting [1] is 0.
Take `Cn1c(-c2csc(C3CCN(CC4=NC5N=CC=CC5N4)CC3)n2)nc2ccccc21` (stereo not drawn) [BAY-070]: the “Growth Rate” value under setting [2] was found to be 0, the “Growth Rate” value under setting [3] is recorded as 0, the “Growth Rate” value under setting [4] amounted to 0 and the “Growth Rate” value under setting [1] worked out at 0.
Consider `CN1C(=O)c2sccc2N(C)c2nc(Nc3ccc(S(N)(=O)=O)cc3)ncc21`, for which the “Growth Rate” value reads like this: under setting [2], 0; under setting [3], 0; under setting [4], 0; under setting [1], 0.
Consider `CN1CCCC(n2nc(Cc3ccc(Cl)cc3)c3ccccc3c2=O)CC1.Cl` (stereo not drawn) [AZELASTINE HYDROCHLORIDE], for which the “Growth Rate” value by setting is: under setting [5], 1; under setting [2], 0; under setting [3], 0; under setting [4], 0; under setting [1], 0.
Turning to `COc1cccc([C@@H](C)NCCCc2ccccc2Cl)c1.Cl` [TECALCET HYDROCHLORIDE], the “Growth Rate” value under setting [5] turned out to be 0; the “Growth Rate” value under setting [2] came out at 0; the “Growth Rate” value under setting [3] worked out at 0; the “Growth Rate” value under setting [4] was 0; the “Growth Rate” value under setting [1] came to 0.
For the compound `Cc1nc(-c2ccc(-c3ccc(C(=O)N4CCc5cc6c(cc54)C4(CCN(C)CC4)CO6)cc3)c(C)c2)no1` [SB-224289], the “Growth Rate” value reads like this: under setting [5], 0; under setting [2], 0; under setting [3], 0; under setting [4], 0; under setting [1], 0.
Turning to `COc1ccc(Oc2cc(NCCC(F)(F)F)c3ncc(-c4ccc(C(=O)NC5CC5)c(C)c4)n3n2)c(F)c1F` [BAY-1217389], the “Growth Rate” value is, setting by setting: under setting [7], 0; under setting [2], 0; under setting [3], 0; under setting [4], 0; under setting [1], 0.
As to `Cc1c(-c2ccc(O)cc2)n(Cc2ccc(OCCN3CCCCCC3)cc2)c2ccc(O)cc12` [BAZEDOXIFENE], the “Growth Rate” value reads like this: under setting [5], 0; under setting [2], 0; under setting [3], 0; under setting [4], 0; under setting [1], 0.
`CN1CCN(c2ccc(OC(F)(F)F)c(Nc3ncc4c(n3)-c3c(c(C(N)=O)nn3CCO)CC4)c2)CC1` [ONVANSERTIB]: the “Growth Rate” value is, setting by setting: under setting [7], 1; under setting [5], 0; under setting [2], 0; under setting [3], 0; under setting [4], 0; under setting [1], 0.
In the case of `C=CC(=O)Nc1cccc(C(=O)Nc2ccc(Nc3cc(-c4[nH]c(SC)nc4C)ccn3)cc2)c1`, the “Growth Rate” value was 0 under setting [7]; 1 under setting [5]; 0 under setting [2]; 0 under setting [3]; 0 under setting [4]; 1 under setting [8]. Further, the “Growth Rate” value under setting [1] stood at 0.
For the compound `CNCc1ccccc1-c1csc([C@H](C)Nc2nc(C)nc3cc(OC)c(OC)cc23)c1` [BAY-294], the “Growth Rate” value by setting is: under setting [2], 0; under setting [3], 0; under setting [4], 0; under setting [1], 0.
Consider `CN(C)C(=O)/C(C#N)=C/c1ccc(-c2nc3cnc4[nH]ccc4c3n2C2CCCCC2)o1`, for which the “Growth Rate” value runs as follows: under setting [7], 0; (24 h, replicate number 2, timepoint 24 hours) 1.
Take `Cn1cncc1[C@@](O)(COc1ccc(C#N)cc1-c1ccc(OC(F)(F)F)cc1)c1ccc(C#N)cc1` [A-108]: the “Growth Rate” value reads like this: under setting [7], 1; under setting [6], 0; under setting [3], 1; under setting [9], 0; under setting [4], 0; under setting [1], 0.
For `CC[C@H](C)C(=O)O[C@H]1C[C@@H](C)C=C2C=C[C@H](C)[C@H](CC[C@@H]3C[C@@H](O)CC(=O)O3)[C@H]21` [LOVASTATIN], the “Growth Rate” value turned out to be 0 under setting [7]; 1 under setting [2]; 0 under setting [3]; 1 under setting [9]; 0 under setting [4]; 0 under setting [1].
For the compound `Cn1cc(C2=C(c3cn(C4CCN(Cc5ccccn5)CC4)c4ccccc34)C(=O)NC2=O)c2ccccc21` [ENZASTAURIN], the “Growth Rate” value is, setting by setting: under setting [2], 0; under setting [3], 0; under setting [4], 0; under setting [1], 0.
On to `Cl.N#Cc1ccc2[nH]cc(CCCCN3CCN(c4ccc5oc(C(N)=O)cc5c4)CC3)c2c1` [VILAZODONE HYDROCHLORIDE], for which the “Growth Rate” value reads like this: under setting [7], 0; under setting [2], 0; under setting [3], 0; under setting [4], 0; under setting [1], 0.
On to `Cc1cc(C)cc(-c2cnc3cc(Cl)c(-c4cccc(O)c4)cc3c2OCCCN)c1`, for which the “Growth Rate” value amounted to 1 under setting [5]; 0 under setting [2]; 0 under setting [3]; 0 under setting [4]; 0 under setting [1].
Turning to `CCOCCn1cc(C(=O)Nc2ccc(-n3nc(-c4cccnc4)cc3C(F)(F)F)cn2)ccc1=O` [BI 1935], the “Growth Rate” value runs as follows: under setting [7], 1; under setting [2], 0; under setting [3], 0; under setting [4], 0; under setting [1], 0.
As for `O=C1NCN(c2ccccc2)C12CCN(CCCOc1ccc(F)cc1)CC2` [SPIRAMIDE], the “Growth Rate” value by setting is: under setting [7], 0; under setting [2], 0; under setting [3], 0; under setting [4], 0; under setting [1], 0.
In the case of `CCn1c(=O)c(-c2ccc(Cl)cc2Cl)cc2cnc(Nc3ccc(N4CCNCC4)c(F)c3)nc21`, the “Growth Rate” value is given as 0 under setting [2], 0 under setting [3], 0 under setting [4] and 0 under setting [1].
Regarding `Cc1[nH]c(/C=C2\C(=O)Nc3ccc(S(=O)(=O)N(C)c4cccc(Cl)c4)cc32)c(C)c1C(=O)N1CCN(C)CC1`, the “Growth Rate” value is on record as 0 under setting [7], 0 under setting [4], 1 under setting [8] and 0 under setting [1].
Take `COc1cc2nccc(Oc3ccc(NC(=O)Nc4cc(C)on4)c(Cl)c3)c2cc1OC.O`: the “Growth Rate” value by setting is: under setting [5], 0; under setting [2], 0; under setting [3], 0; under setting [4], 0; under setting [1], 0.
For the compound `Cc1csc2c(N[C@@H](C)CN3CCN(S(=O)(=O)c4ccc(Cl)c(Cl)c4)CC3)ncnc12`, the “Growth Rate” value came to 0 under setting [7]; 0 under setting [2]; 0 under setting [3]; 0 under setting [4]; 0 under setting [1].
Consider `COc1cc(-n2cnc3cc(-c4ccc(Cl)cc4)sc3c2=O)ccc1OCCN1CCCC1`, for which the “Growth Rate” value under setting [5] turned out to be 1; the “Growth Rate” value under setting [2] worked out at 0; the “Growth Rate” value under setting [3] is 0; the “Growth Rate” value under setting [4] is 0; the “Growth Rate” value under setting [1] is listed as 0.
As to `NC(=O)Nc1cc(-c2cccc(F)c2)sc1C(=O)N[C@H]1CCCNC1` [AZD-7762], the “Growth Rate” value by setting is: under setting [7], 0; under setting [5], 1; under setting [2], 0; under setting [3], 0; under setting [4], 0; under setting [1], 0.
Take `O=C(NCCCC1CCCCC1)c1ccc(CNC(=O)c2cnn(-c3ccccc3)c2C(F)(F)F)cc1` [SR-321]: the “Growth Rate” value under setting [7] amounted to 0; the “Growth Rate” value under setting [5] came to 1; the “Growth Rate” value under setting [2] is 0; the “Growth Rate” value under setting [3] worked out at 0; the “Growth Rate” value under setting [4] was found to be 0; the “Growth Rate” value under setting [1] is recorded as 0.
For the compound `CN(C)C(=O)N[C@H]1CC[C@H](CCN2CCN(c3cccc(Cl)c3Cl)CC2)CC1.Cl` [CARIPRAZINE HYDROCHLORIDE], the “Growth Rate” value by setting is: under setting [5], 1; under setting [2], 0; under setting [3], 0; under setting [4], 0; under setting [1], 0.
Consider `CN(C)c1ncnc(-c2ccc3nc(Nc4cc(CN5CCN(C(=O)CC(F)(F)F)CC5)ccn4)[nH]c3c2)c1Cl` [BAY-440], for which the “Growth Rate” value under setting [5] is on record as 0; the “Growth Rate” value under setting [2] turned out to be 0; the “Growth Rate” value under setting [3] is listed as 0; the “Growth Rate” value under setting [4] was found to be 0; the “Growth Rate” value under setting [1] was found to be 0.
As to `OC1(c2ccc(Cl)cc2)CCN(Cc2c[nH]c3ccccc23)CC1`, the “Growth Rate” value runs as follows: under setting [7], 1; under setting [2], 0; under setting [3], 0; under setting [4], 0; under setting [1], 0.
For `C[C@@H](NCCCc1cccc(C(F)(F)F)c1)c1cccc2ccccc12.Cl` [CINACALCET HYDROCHLORIDE], the “Growth Rate” value under setting [5] was found to be 0; the “Growth Rate” value under setting [2] came out at 0; the “Growth Rate” value under setting [3] is given as 0; the “Growth Rate” value under setting [4] stood at 0; the “Growth Rate” value under setting [1] was determined as 0.
As to `CCN(CC)CCCCNc1ncc2cc(-c3cc(OC)cc(OC)c3)c(NC(=O)NC(C)(C)C)nc2n1` [PD-173074], the “Growth Rate” value runs as follows: under setting [7], 1; under setting [2], 0; under setting [3], 0; under setting [4], 0; under setting [1], 0.
On to `C=CC(=O)Nc1ccc2ncnc(Nc3ccc(OCc4cccc(F)c4)c(Cl)c3)c2c1.Cc1ccc(S(=O)(=O)O)cc1`, for which the “Growth Rate” value was 0 under setting [7]; 1 under setting [5]; 0 under setting [6]; 0 under setting [9]; 0 under setting [4]; 0 under setting [1].

These data come from ChEMBL document CHEMBL4689842, “EUbOPEN Chemogenomics Library wave 1” (2021).
